{
  "source": "paper PMC12435690",
  "about": "“KYLO-0603, a novel liver-targeting, thyroid hormone receptor-β agonist for the inhibition of MASH progression” (PLOS One, 2025)",
  "key": {"in vitro": {"assay": "in vitro", "settings": "Sprague-Dawley, rat, plasma"}, "[1]": {"assay": "Metabolic stability in plasma (humans)", "settings": "human"}, "[2]": {"tested_on": "liver of the MASH mouse models (F2 ~ 3)", "assay": "Gene expression analysis (transcriptome sequencing) in liver of MASH mouse models", "format": "in vivo, C57BL/6J mice", "experimental": "Transcriptome sequencing was performed on the Illumina sequencing platform, and the library sequencing and biotechnological analysis were performed by Beijing Novozymes Technology Co.\nTo explore the mechanism by which Kylo-0603 promotes lipid metabolism, we used Illumina’s NEBNext® UtraTM RNA Library Prep Kit to examine the expression of relevant genes in the livers of the MASH mouse models (F2 ~ 3) after Kylo-0603 administration (Fig 8). We first examined the expression of THR-regulated genes, including iodothyronine deiodinase 1 (Dio1), malic enzyme 1 (Me1), and thyroid hormone responsive (Thrsp). Me1 encodes an enzyme that catalyzes the conversion of malate to pyruvate while concomitantly generating NADPH from NADP, and its upregulation promotes energy metabolism. Thrsp is mainly a nuclear protein induced by thyroid hormones, carbohydrate intake, adipose tissue differentiation and lactation and plays an important role in the regulation of lipid metabolism. […] LDL-R (low-density lipoprotein receptor) promotes the cellular uptake of LDL and facilitates cholesterol degradation. […] This finding was consistent with a dose-dependent reduction in the serum LDL-C level (Fig 9A). […] This therapeutic effect was validated by assessing liver histopathology in animal models. Kylo-0603 inhibited the genes encoding the inflammatory factors Tnfrsf1a, IL6, IL17rb, and IL17ra (Fig 9B).\nFig 9 Effects of Kylo-0603 on the expression of related genes of the MASH mouse models. Total RNA was extracted from the frozen liver tissue of the MASH mouse models (F2 ~ 3), and the mice were injected daily with saline or Kylo-0603 at a dosage of 0.1–3 mg/kg/day. Transcriptome sequencing is based on the Illumina sequencing platform. The relative expression of a gene was calculated by normalizing the true expression level of the target gene to the expression level of that gene in the control group."}, "[3]": {"assay": "28-day repeated-dose toxicity study in cynomolgus monkeys", "format": "in vivo", "experimental": "To evaluate the preclinical safety profile of Kylo-0603, a novel liver-targeted thyroid hormone receptor β (TRβ) agonist with therapeutic potential, systematic toxicological assessments were conducted in both non-human primates (cynomolgus monkeys) and rodents (Sprague-Dawley rats). […] The no-observed-adverse-effect level (NOAEL) was determined to be 1.5 mg/kg/day. Collectively, these independent toxicological investigations substantiate Kylo-0603’s favorable safety, providing rigorous preclinical support for clinical advancement."}, "[4]": {"tested_on": "MASH mouse model (F2 ~ 3)", "assay": "MASH mouse model (F2~3) induced with HFD and CCl4", "format": "in vivo, C57BL/6J mice", "design": "Steatosis score / Lobular inflammation score / Ballooning score / NAFLD activity score / Fibrosis Score: scale not given here", "experimental": "A total of 80 5-week-old C57BL/6J male mice were randomly assigned to two groups based on their body weight: a control group (n = 10) and a high-fat diet group (HFD, D12492, n = 70). During the eight-week feeding period, the mice in the two groups were provided with the corresponding diets, including shavings bedding, and their weights were recorded once a week. The change of the weight of each group of mice at a given time were recorded. […] The control diet group was provided with a control diet supplemented with the solvent vehicle, while the HFD control group was given a high-fat diet with the same supplement. The remaining […] groups were provided a high-fat diet containing the solvent and administered a range of doses of Kylo-0603, namely, 0.1 mg/kg, 0.3 mg/kg, 1 mg/kg, 3 mg/kg, and 10 mg/kg. The HFD control group was administered intraperitoneal injections of 0.2 ml/kg CCl4 twice a week for 8 weeks, during which time the mice were fed the same diets as before. The mice were weighed weekly, and the dosage for each week was determined based on their body weight at the commencement of that week. After a period of fasting of between 5 and 6 hours on the day following the final administration of the drug, the mice in each group were euthanized, whole blood was collected from either the orbits or the heart, and the serum was separated and stored at −80°C. The heart and liver tissues of the mice in each group were weighed and photographed. The heart tissues were then quickly frozen in liquid nitrogen and stored in a refrigerator at −80°C, and the middle lobe of the liver was divided into four parts. Two of these samples were quickly frozen in liquid nitrogen and stored at −80°C (for RNA sequencing). The remaining two portions were fixed in a 4% Paraformaldehyde solution and subsequently dehydrated for paraffin embedding and OCT embedding. […] For the quantification of hepatic lipid content, liver tissues were meticulously homogenized in isopropanol (1:9 tissue to isopropanol by mass/volume) on ice. The homogenate was then incubated overnight at 4°C and subsequently centrifuged to […]. The resulting solution was analyzed for TG and Chol using a Hitachi 7020 automated hematochemistry system.\nThe samples were then washed with pure water."}, "[5]": {"settings": "3 mg/kg, 8 weeks, vs HFD + CCl4 + Vehicle"}, "[6]": {"settings": "10 mg/kg, 8 weeks, vs HFD + CCl4 + Vehicle"}, "[7]": {"settings": "abstract: MASH mouse model, maximum effect"}},
  "data": [
    {"compound": "CC(=O)N[C@H]1[C@H](OCCCCCCNC(=O)CCOCC(COCCC(=O)NCCCCCCO[C@@H]2O[C@H](CO)[C@H](O)[C@H](O)[C@H]2NC(C)=O)(COCCC(=O)NCCCCCCO[C@@H]2O[C@H](CO)[C@H](O)[C@H](O)[C@H]2NC(C)=O)NC(=O)CCCCCNC(=O)COc2cc(C)c(Cc3ccc(O)c(C(C)C)c3)c(C)c2)O[C@H](CO)[C@H](O)[C@@H]1O", "note": "[Kylo-0603]", "values": [
      {"measurement": "half-life at 2 μM", "setting": "in vitro", "value": "> 6.21", "unit": "h"},
      {"measurement": "plasma stability", "setting": "[1]", "value": "stable"},
      {"measurement": "Atgl expression", "setting": "[2]", "value": "dose-responsive elevation"},
      {"measurement": "Cpt1a expression", "setting": "[2]", "value": "dose-dependent upregulation"},
      {"measurement": "Pdk4 expression", "setting": "[2]", "value": "significant increases"},
      {"measurement": "Srebf1 and Scd1 expression", "setting": "[2]", "value": "coordinated downregulation"},
      {"measurement": "genes encoding the inflammatory factors Tnfrsf1a, IL6, IL17rb, IL17ra", "setting": "[2]", "value": "inhibited"},
      {"measurement": "LDL-R gene expression", "setting": "[2]; dose-dependent", "value": "upregulated"},
      {"measurement": "expression of Dio1, Thrsp and Me1", "setting": "[2]; dose-dependent", "value": "significantly upregulated"},
      {"measurement": "peroxisome-related genes", "setting": "[2]; dose-dependent", "value": "upregulation"},
      {"measurement": "expression of collagen synthesis genes", "setting": "[2]; with increasing doses", "value": "significantly suppressed"},
      {"measurement": "perturbations of the hypothalamic-pituitary-thyroid (HPT) axis", "setting": "[3]; cynomolgus monkeys", "value": "no perturbations"},
      {"measurement": "macroscopic lesions or histopathological changes", "setting": "[3]; oral 0.5, 1 and 5 mg/kg per day, 28 days, 56-day recovery", "value": "no macroscopic lesions or histopathological changes"},
      {"measurement": "decrease of fibrosis score", "setting": "[4]; 3 mg/kg and 10 mg/kg, 8 weeks, vs HFD + CCl4 + Vehicle", "value": 0.6, "unit": "points"},
      {"measurement": "ALT decrease", "setting": "[4]; 3 mg/kg, 8 weeks, serum", "value": 73.8, "unit": "%"},
      {"measurement": "AST decrease", "setting": "[4]; 3 mg/kg, 8 weeks, serum", "value": 76.3, "unit": "%"},
      {"measurement": "decrease in ballooning degeneration score", "setting": "[4]; [5]", "value": 0.7, "unit": "points"},
      {"measurement": "reduction in hepatic steatosis score", "setting": "[4]; [5]", "value": "exceeding 1.0 points"},
      {"measurement": "reduction in inflammation score", "setting": "[4]; [5]", "value": "exceeding 1.0 points"},
      {"measurement": "reduction of NAS (NAFLD Activity Score)", "setting": "[4]; [5]", "value": 3.5, "unit": "points"},
      {"measurement": "decrease in ballooning degeneration score", "setting": "[4]; [6]", "value": 0.8, "unit": "points"},
      {"measurement": "reduction in hepatic steatosis score", "setting": "[4]; [6]", "value": "exceeding 1.0 points"},
      {"measurement": "reduction in inflammation score", "setting": "[4]; [6]", "value": "exceeding 1.0 points"},
      {"measurement": "reduction of NAS (NAFLD Activity Score)", "setting": "[4]; [6]", "value": 3.7, "unit": "points"},
      {"measurement": "TSH levels", "setting": "[4]; 8 weeks, blood", "value": "decreasing trends"},
      {"measurement": "levels of thyroid hormones T3, fT3, T4 and fT4", "setting": "[4]; 8 weeks, blood", "value": "increasing trends"},
      {"measurement": "Ballooning score", "setting": "[4]; HFD + CCl4, 0.1 mg/kg, 8 weeks", "value": "1.4 ± 0.5"},
      {"measurement": "Fibrosis Score", "setting": "[4]; HFD + CCl4, 0.1 mg/kg, 8 weeks", "value": "2.8 ± 0.4"},
      {"measurement": "Lobular inflammation score", "setting": "[4]; HFD + CCl4, 0.1 mg/kg, 8 weeks", "value": "2.4 ± 0.5"},
      {"measurement": "NAFLD activity score", "setting": "[4]; HFD + CCl4, 0.1 mg/kg, 8 weeks", "value": "4.7 ± 0.9"},
      {"measurement": "Steatosis score", "setting": "[4]; HFD + CCl4, 0.1 mg/kg, 8 weeks", "value": "0.8 ± 1.0"},
      {"measurement": "Ballooning score", "setting": "[4]; HFD + CCl4, 0.3 mg/kg, 8 weeks", "value": "1.4 ± 0.5"},
      {"measurement": "Fibrosis Score", "setting": "[4]; HFD + CCl4, 0.3 mg/kg, 8 weeks", "value": "2.3 ± 0.5"},
      {"measurement": "Lobular inflammation score", "setting": "[4]; HFD + CCl4, 0.3 mg/kg, 8 weeks", "value": "2.2 ± 0.4"},
      {"measurement": "NAFLD activity score", "setting": "[4]; HFD + CCl4, 0.3 mg/kg, 8 weeks", "value": "4.0 ± 0.9"},
      {"measurement": "Steatosis score", "setting": "[4]; HFD + CCl4, 0.3 mg/kg, 8 weeks", "value": "0.3 ± 0.5"},
      {"measurement": "Ballooning score", "setting": "[4]; HFD + CCl4, 1 mg/kg, 8 weeks", "value": "2.0 ± 0.0"},
      {"measurement": "Fibrosis Score", "setting": "[4]; HFD + CCl4, 1 mg/kg, 8 weeks", "value": "2.3 ± 0.5"},
      {"measurement": "Lobular inflammation score", "setting": "[4]; HFD + CCl4, 1 mg/kg, 8 weeks", "value": "2.2 ± 0.4"},
      {"measurement": "NAFLD activity score", "setting": "[4]; HFD + CCl4, 1 mg/kg, 8 weeks", "value": "4.3 ± 0.5"},
      {"measurement": "Steatosis score", "setting": "[4]; HFD + CCl4, 1 mg/kg, 8 weeks", "value": "0.1 ± 0.3"},
      {"measurement": "Ballooning score", "setting": "[4]; HFD + CCl4, 3 mg/kg, 8 weeks", "value": "1.1 ± 0.3"},
      {"measurement": "Fibrosis Score", "setting": "[4]; HFD + CCl4, 3 mg/kg, 8 weeks", "value": "2.0 ± 0.0"},
      {"measurement": "Lobular inflammation score", "setting": "[4]; HFD + CCl4, 3 mg/kg, 8 weeks", "value": "1.4 ± 0.5"},
      {"measurement": "NAFLD activity score", "setting": "[4]; HFD + CCl4, 3 mg/kg, 8 weeks", "value": "2.8 ± 1.0"},
      {"measurement": "Steatosis score", "setting": "[4]; HFD + CCl4, 3 mg/kg, 8 weeks", "value": "0.2 ± 0.4"},
      {"measurement": "Ballooning score", "setting": "[4]; HFD + CCl4, 10 mg/kg, 8 weeks", "value": "1.0 ± 0.7"},
      {"measurement": "Fibrosis Score", "setting": "[4]; HFD + CCl4, 10 mg/kg, 8 weeks", "value": "2.0 ± 0.0"},
      {"measurement": "Lobular inflammation score", "setting": "[4]; HFD + CCl4, 10 mg/kg, 8 weeks", "value": "1.1 ± 0.5"},
      {"measurement": "NAFLD activity score", "setting": "[4]; HFD + CCl4, 10 mg/kg, 8 weeks", "value": "2.6 ± 1.0"},
      {"measurement": "Steatosis score", "setting": "[4]; HFD + CCl4, 10 mg/kg, 8 weeks", "value": "0.4 ± 1.0"},
      {"measurement": "decrease of fibrosis score", "setting": "[4]; abstract", "value": 0.6, "unit": "points"},
      {"measurement": "decrease of ballooning score", "setting": "[4]; abstract, maximum effect", "value": 0.8, "unit": "points"},
      {"measurement": "decrease of inflammation score", "setting": "[4]; abstract, maximum effect", "value": 1.8, "unit": "points"},
      {"measurement": "reduction of NAS", "setting": "[4]; abstract, maximum effect", "value": "up to 3.7 points"},
      {"measurement": "lowering of LDL-C levels", "setting": "[4]; [7]", "value": "up to 88.2%"},
      {"measurement": "lowering of serum cholesterol levels", "setting": "[4]; [7]", "value": "≤ 69.2", "unit": "%"}
    ]}
  ]
}
